Earlier results in patent US6472362B1, “Detergent compositions in tablet form” (Unilever Home & Personal Care USA division of Conopco, Inc., priority 1997, dated 2002).
Read-outs that look alike come from different tables or passages of the source.

[1] = other common materials, at 200° C. (so in the source)

| solubility in water (at 20° C.) | Water Solubility (g/100 g) (highly water-soluble materials, saturated solution in 100 grams of water at 20° C.) | SMILES | Water Solubility (g/100 g) [1] [g/100 g] |
| --- | --- | --- | --- |
|  |  | O=BO[O-].[Na+] [Sodium perborate anhydrous] | 3.7 |
|  |  | O=P(O)(O)OP(=O)(O)OP(=O)(O)O [Sodium tripolyphosphate anhydrous] | 15 |
| exceeding 100 gms per 100 ml water | >100 | NC(N)=O [Urea] |  |
